ChEMBL document CHEMBL5512607, “Journey of Von Hippel-Lindau (VHL) E3 ligase in PROTACs design: From VHL ligands to VHL-based degraders” (Eur J Med Chem, 2024)
pEC50: −log10 of the molar value.

How the values were obtained:
Bcl-2-like protein 1 = Bcl-2-like protein 1 (Homo sapiens, UniProt Q07817); assay: Induction of Bcl-xl degradation in HEK293T cells incubated for 16 hrs by immunoblotting analysis; format: cell-based
[1] = molecular target: Apoptosis regulator Bcl-2 (Homo sapiens, UniProt P10415); assay: Induction of Bcl2 degradation in HEK293T cells incubated for 16 hrs by immunoblotting analysis; format: cell-based
Apoptosis regulator Bcl-2, sequence (P10415 whole entry): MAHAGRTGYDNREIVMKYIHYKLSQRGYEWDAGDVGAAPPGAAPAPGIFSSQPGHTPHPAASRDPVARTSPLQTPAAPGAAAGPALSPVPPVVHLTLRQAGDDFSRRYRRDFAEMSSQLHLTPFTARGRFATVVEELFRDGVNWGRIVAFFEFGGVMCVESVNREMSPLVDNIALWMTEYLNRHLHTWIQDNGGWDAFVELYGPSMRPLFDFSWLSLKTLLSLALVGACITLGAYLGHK

[2] = tested on: von Hippel-Lindau disease tumor suppressor/Epidermal growth factor receptor (Homo sapiens), P00533+P40337 [UNDEFINED MUTATION]; assay: PROTAC activity at VHL/EGFR del19 mutant in human HCC827 cells assessed as maximal degradation incubated for 24 hrs by immunoblot analysis relative to control; format: cell-based
von Hippel-Lindau disease tumor suppressor/Epidermal growth factor receptor (Homo sapiens), P00533+P40337 [UNDEFINED MUTATION], sequence (P00533 whole entry, looked up, stated change not applied): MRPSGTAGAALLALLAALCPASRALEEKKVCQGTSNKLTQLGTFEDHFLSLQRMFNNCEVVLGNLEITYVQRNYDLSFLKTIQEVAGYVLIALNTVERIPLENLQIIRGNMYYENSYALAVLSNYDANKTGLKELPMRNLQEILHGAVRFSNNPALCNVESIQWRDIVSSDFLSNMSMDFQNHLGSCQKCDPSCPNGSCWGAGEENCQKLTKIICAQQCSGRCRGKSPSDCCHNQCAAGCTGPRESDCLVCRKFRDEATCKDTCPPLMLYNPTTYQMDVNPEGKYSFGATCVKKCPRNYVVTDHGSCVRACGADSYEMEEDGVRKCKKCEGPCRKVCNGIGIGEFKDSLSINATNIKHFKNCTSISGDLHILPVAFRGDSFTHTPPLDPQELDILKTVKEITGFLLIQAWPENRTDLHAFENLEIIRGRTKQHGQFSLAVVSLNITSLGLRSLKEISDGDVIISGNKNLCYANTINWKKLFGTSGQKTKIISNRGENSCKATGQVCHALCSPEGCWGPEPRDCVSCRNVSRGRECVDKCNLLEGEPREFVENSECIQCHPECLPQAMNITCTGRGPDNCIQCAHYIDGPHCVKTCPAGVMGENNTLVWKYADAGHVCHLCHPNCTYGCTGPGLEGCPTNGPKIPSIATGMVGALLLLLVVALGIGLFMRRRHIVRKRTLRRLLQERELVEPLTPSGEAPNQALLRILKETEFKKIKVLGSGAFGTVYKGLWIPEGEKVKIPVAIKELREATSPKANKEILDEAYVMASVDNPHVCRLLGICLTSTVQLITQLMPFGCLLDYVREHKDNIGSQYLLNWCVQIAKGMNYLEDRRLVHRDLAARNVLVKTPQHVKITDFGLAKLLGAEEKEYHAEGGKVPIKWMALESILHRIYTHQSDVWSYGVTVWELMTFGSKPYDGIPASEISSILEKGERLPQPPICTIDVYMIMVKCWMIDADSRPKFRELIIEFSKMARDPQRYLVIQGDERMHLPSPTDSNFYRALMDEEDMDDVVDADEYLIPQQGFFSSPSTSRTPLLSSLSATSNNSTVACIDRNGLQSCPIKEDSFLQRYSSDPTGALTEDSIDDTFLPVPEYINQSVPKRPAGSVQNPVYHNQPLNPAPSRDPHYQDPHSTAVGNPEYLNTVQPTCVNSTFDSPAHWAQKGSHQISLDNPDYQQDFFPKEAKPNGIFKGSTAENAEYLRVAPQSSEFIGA
von Hippel-Lindau disease tumor suppressor/Epidermal growth factor receptor (Homo sapiens), P00533+P40337 [UNDEFINED MUTATION], sequence (P40337 whole entry, looked up, stated change not applied): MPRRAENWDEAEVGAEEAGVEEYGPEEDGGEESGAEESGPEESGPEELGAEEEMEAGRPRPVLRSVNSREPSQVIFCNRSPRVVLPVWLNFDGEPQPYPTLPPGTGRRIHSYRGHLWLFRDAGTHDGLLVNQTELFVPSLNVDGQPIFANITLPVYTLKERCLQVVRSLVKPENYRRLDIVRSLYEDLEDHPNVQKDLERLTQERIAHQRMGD

[3] = molecular target: T1, von Hippel-Lindau disease tumor suppressor/Epidermal growth factor receptor (Homo sapiens, UniProt P00533+P40337); assay: PROTAC activity at VHL/EGFR del19 mutant in human HCC827 cells assessed as protein degradation incubated for 24 hrs by immunoblot analysis; format: cell-based
T1 sequence (P00533 whole entry, looked up, stated change not applied): as the sequence (P00533 whole entry, looked up, stated change not applied) above
T1 sequence (P40337 whole entry, looked up, stated change not applied): as the sequence (P40337 whole entry, looked up, stated change not applied) above

[4] = tested on: von Hippel-Lindau disease tumor suppressor/Epidermal growth factor receptor (Homo sapiens), P00533+P40337 [UNDEFINED MUTATION]; assay: PROTAC activity at VHL/EGFR del19 mutant in human NCI-H3255 cells assessed as maximal degradation incubated for 24 hrs by immunoblot analysis relative to control; format: cell-based
[5] = molecular target: T1, von Hippel-Lindau disease tumor suppressor/Epidermal growth factor receptor; assay: PROTAC activity at VHL/EGFR del19 mutant in human NCI-H3255 cells assessed as protein degradation incubated for 24 hrs by immunoblot analysis; format: cell-based
[6] = molecular target: T2, von Hippel-Lindau disease tumor suppressor/Bcl-2-like protein 1 (Homo sapiens, UniProt Q07817+P40337); assay: PROTAC activity at VHL/BCL-XL in human THP-1 cells assessed as induction of protein degradation by measuring maximal degradation relative to control; format: cell-based
Target sequence in this assay (P40337 whole entry, looked up): as the sequence (P40337 whole entry, looked up, stated change not applied) above
Target sequence in this assay (Q07817 whole entry, looked up): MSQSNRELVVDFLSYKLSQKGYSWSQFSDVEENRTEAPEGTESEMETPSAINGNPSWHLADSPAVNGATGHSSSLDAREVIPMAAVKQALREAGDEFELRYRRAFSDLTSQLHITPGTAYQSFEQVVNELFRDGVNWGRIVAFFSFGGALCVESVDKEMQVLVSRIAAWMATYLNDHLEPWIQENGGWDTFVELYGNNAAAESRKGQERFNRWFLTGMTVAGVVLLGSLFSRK

MOLT-4 [7] = assay: Antiproliferative activity against human MOLT-4 cells assessed as cell growth inhibition incubated for 72 hrs by Cell Titer-Glo Luminescent assay; format: functional, cell-based; conditions: MOLT-4, 72 h
[8] = molecular target: T2, von Hippel-Lindau disease tumor suppressor/Bcl-2-like protein 1; assay: PROTAC activity at VHL/BCL-XL in human THP-1 cells assessed as induction of BCL-XL degradation incubated for 16 hrs by immunoblot analysis; format: cell-based
Target sequence in this assay (Q07817 whole entry): as the sequence (Q07817 whole entry, looked up) above
Target sequence in this assay (P40337 whole entry): as the sequence (P40337 whole entry, looked up, stated change not applied) above

[9] = molecular target: T2, von Hippel-Lindau disease tumor suppressor/Bcl-2-like protein 1; assay: PROTAC activity at VHL/BCL-XL in human MOLT-4 cells assessed as induction of BCL-XL degradation incubated for 16 hrs by immunoblot analysis; format: cell-based
Target sequence in this assay (Q07817 whole entry): as the sequence (Q07817 whole entry, looked up) above
Target sequence in this assay (P40337 whole entry): as the sequence (P40337 whole entry, looked up, stated change not applied) above

[10] = molecular target: T2, von Hippel-Lindau disease tumor suppressor/Bcl-2-like protein 1; assay: Protac activity at VHL/BCL-XL in human MOLT-4 cells assessed as induction of protein degradation by measuring maximal degradation relative to control; format: cell-based
Target sequence in this assay (P40337 whole entry, looked up): as the sequence (P40337 whole entry, looked up, stated change not applied) above
Target sequence in this assay (Q07817 whole entry, looked up): as the sequence (Q07817 whole entry, looked up) above

MOLT-4 [11] = assay: Anticancer activity against human MOLT-4 cells assessed as reduction in cell viability incubated for 72 hrs by MTS assay; format: functional, cell-based; conditions: MOLT-4, 72 h

Bcl-2-like protein 1, sequence (Q07817 whole entry): as the sequence (Q07817 whole entry, looked up) above

## Cc1ncsc1-c1ccc([C@H](C)NC(=O)[C@@H]2C[C@@H](O)CN2C(=O)[C@H](NC(=O)CCCCCCC(=O)N2CCN(C[C@]3(C)CCC(c4ccc(Cl)cc4)=C(CN4CCN(c5ccc(C(=O)NS(=O)(=O)c6ccc(N[C@H](CCN7CCOCC7)CSc7ccccc7)c(S(=O)(=O)C(F)(F)F)c6)cc5)CC4)C3)CC2)C(C)(C)C)cc1
Bcl-2-like protein 1
  DC50: 6 nM
[1]
  DC50: 48 nM

## COc1cc2ncnc(Nc3ccc(F)c(Cl)c3)c2cc1OCCCCCOCCOCCC(=O)N[C@@H](C(=O)N1C[C@@H](O)C[C@@H]1C(=O)NCc1ccc(-c2scnc2C)cc1)C(C)(C)C
[2]
  Emax: 98.9%
[3]
  DC50: 11.7 nM
[4]
  Emax: 96.6%
[5]
  DC50: 22.3 nM

## Cc1ncsc1-c1ccc(CNC(=O)[C@@H]2C[C@@H](O)CN2C(=O)[C@H](NC(=O)CCOCCOCCOCCOCCOCCOCC#Cc2ccc(OCCCc3sc(N4CCc5cccc(C(=O)Nc6nc7ccccc7s6)c5C4)nc3C(=O)O)cc2)C(C)(C)C)cc1
[6]
  Emax: 76%
MOLT-4 [7]
  pEC50: 6.24
[8]
  DC50: 4.8 nM

## Cc1ncsc1-c1ccc([C@H](C)NC(=O)[C@H]2C[C@H](O)CN2C(=O)[C@@H](NC(=O)CCCCCC(=O)N2CCN(CC[C@H](CSc3ccccc3)Nc3ccc(S(=O)(=O)NC(=O)c4ccc(N5CCN(CC6=C(c7ccc(Cl)cc7)CCC(C)(C)C6)CC5)cc4)cc3S(=O)(=O)C(F)(F)F)CC2)C(C)(C)C)cc1
[9]
  DC50: 53 nM
[10]
  Emax: 90.8%
MOLT-4 [11]
  pEC50: 7.28
